Assay [1] has as its system L1210. The assay can be described thus: The compound was evaluated in vitro for its antiproliferative activity against the murine L1210 leukemia cell. The note with it: Mus musculus. The assay is classed as functional, cell-based.
Assay [2] has as its system L1210. Kind of assay: Effect of compound on cellular cycle of L1210 leukemia cell; non specific. The assay is classed as functional, cell-based. To be noted: Mus musculus.

The values that follow come from ChEMBL document CHEMBL1132749, “Synthesis and antiproliferative evaluation of 7-aminosubstituted pyrroloiminoquinone derivatives” (Bioorg Med Chem Lett, 2000).

As usually defined, the IC50 is the midpoint of a concentration-inhibition curve. Lower therefore signals greater potency. In the case of `O=C1C(NCCN2CCCC2)=CC2=NCCc3c[nH]c1c32`, in the assay on L1210 [1], the IC50 was 380 nM. Moreover, the Effect entry in the assay on L1210 [2] is recorded as “non specific”.
For `NC1=CC2=NCCc3c[nH]c(c32)C1=O` [MAKALUVAMINE I], in that order: 250 nM and “non specific”.
On to `CN(C)CCNC1=CC2=NCCc3c[nH]c(c32)C1=O`, for which the IC50 in the assay with L1210 [1] was 300 nM. Moreover, in the assay on L1210 [2], the Effect entry is given as “non specific”.
Take `O=C1C(NCCc2c[nH]c3ccccc23)=CC2=NCCc3c[nH]c1c32`: the concentration for half-maximal inhibition (IC50) in the assay on L1210 [1] was 5300 nM. The Effect entry in the assay on L1210 [2] is “non specific”.
For `O=C1C(NCCc2ccc(O)cc2)=CC2=NCCc3c[nH]c1c32`, in that order: 2100 nM and “non specific”.
